{"source": "patent US20240198337A1", "about": "“Bone Marrow on a Chip” (NEW YORK UNIVERSITY, priority 2021, published 2024)", "key": {"[1]": {"system": "ETV6-RUNX1+ REH and Ph+ SUP-B15 human B-ALL cell lines", "test": "Chemo-resistance of engineered human B-ALL BM niches to increasing doses of vincristine (Leukemia-on-a-Chip)", "type": "cell-based", "settings": "B-ALL co-cultured with niche cells", "text": "FIG. 4A through FIG. 4G depicts modeling the leukemic bone marrow (BM) niche in a Leukemia-on-a-Chip platform. […] (FIG. 4C) The Hematoxylin and Eosin (H&E) staining image of the in vivo murine leukemic BM niche, with the enlarged area from showing the co-localization of B-ALL cells respectively within the perivascular and endosteal niches. (FIG. 4D) The chemo-resistance was compared between the engineered human BM niches of ETV6-RUNX1+ REH and Ph+ SUP-B15 B-ALL. Each drug concentration had >3 experimental replicates. (FIG. 4E) The cytokine profiles from two B-ALL blasts with and without niche cells were quantified using membrane-based ELISA analysis. (FIG. 4F) The quantification of nuclear (nuc)/cytoplasmic (cyto) ratio of NF-κB in REH and SUP B-ALL within their respective niche models. The ratios for REH and SUP were manually measured from 3 experimental replicates (N>150). […]\nThe outcome of drugs was defined by the viability of B-ALL cells as a cytotoxic end point after drug treatment. […] The cell viability was quantitatively determined by using Calcein-AM (Thermo Fischer Scientific) and DAPI, which respectively stained the live and dead cells. […] Afterward, cells were observed under a fluorescence microscope, and cellular viability was quantitatively measured by counting the number of objects in the green (live cells) and red (dead cells) channels. […]"}, "murine Ph+ B-ALL cells": {"system": "murine Ph+ B-ALL cells", "test": "Drug resistance testing: B-ALL cell viability in 3D hydrogel devices (Calcein-AM/DAPI)", "type": "cell-based", "settings": "NIL 1 μM, PRE 1 μM, VCR 0.1 μM; for B-ALL drug-induced cell death (chemo-resistance): presence of niche cells", "protocol": "The outcome of drugs was defined by the viability of B-ALL cells as a cytotoxic end point after drug treatment. B-ALL cells were cultured alone or co-cultured with niche cells in 3D hydrogel devices for 24 hr, and then incubated with 1 μM nilotinib (NIL, Cayman Chemical), 1 μM prednisone (PRE, Sigma), and 0.1 μM vincristine (VCR, Sigma) for 48 hr. The cell viability was quantitatively determined by using Calcein-AM (Thermo Fischer Scientific) and DAPI, which respectively stained the live and dead cells. Briefly, cells were rinsed thrice with PBS and incubated with Calcein-AM and DAPI ([…] and 5 μg/mL in PBS or medium) solution for 30 min at 37° C., followed by a final rinse with PBS. Afterward, cells were observed under a fluorescence microscope, and cellular viability was quantitatively measured by counting the number of objects in the green (live cells) and red (dead cells) channels. Untreated groups of B-ALL cells were used as controls to benchmark the drug resistance of different groups."}, "REH B-ALL blasts": {"system": "REH B-ALL blasts", "test": "REH viability cultured with hematopoietic cells under VCR treatment", "type": "cell-based, human", "settings": "48 hr treatment of 20 nM VCR; co-culture with CD34+ HSPC-derived hematopoietic cells", "text": "FIG. 13A through FIG. 13L depict the results of niche cells functioning disparately to regulate leukemia progression. (FIG. 13A) Membrane-based ELISA analysis of CXCL12 secretion of ECs (Top left) and MSCs (Top right). Western blotting of CXCL12 expression of ECs (Bottom left) and MSCs (Bottom right). (FIG. 13B) VCAM-1 expression of ECs and the quantification result (N>200). (FIG. 13C) OPN expression of 2D cultured MSCs and the quantification result (N>200). (FIG. 13D) The correlation between distance of B-ALL to MSCs and dye retaining ability of B-ALL (N>120). B-ALL with lower DiD intensity was excluded as indicated by the dash line. (FIG. 13E) and (FIG. 13F) The flow cytometric images showing DiD dye retained in B-ALL, i.e. low (Lo), middle (Mid), and high (Hi) intensity. (FIG. 13G) The representative images showing p21 expression in B-ALL located in the perivascular and endosteal niches (N=54). (FIG. 13H) B-ALL viability in the two niches treated with different drugs. (FIG. 13I) NF-κB activation in REH after co-cultured with hematopoietic cells. […] (FIG. 13L) The quantified number of CD34+ cells. […]\nThe contributing mechanisms from hematopoietic cells was then investigated. […] Furthermore, healthy bone marrow mononuclear cells were cultured with and without REH blasts in the leukemia systems for day 1 and day 9 and the number of CD34+ cells was quantified. […]"}}, "data": [{"compound": "CC[C@]1(O)C[C@H]2CN(CCc3c([nH]c4ccccc34)[C@@](C(=O)OC)(c3cc4c(cc3OC)N(C=O)[C@H]3[C@@](O)(C(=O)OC)[C@H](OC(C)=O)[C@]5(CC)C=CCN6CC[C@]43[C@@H]65)C2)C1", "note": "[vincristine]", "values": [{"measurement": "chemotherapy sensitivity (chemo-resistance) of REH versus SUP BM niches", "setting": "[1]", "result": "SUP B-ALL co-cultured with niche cells showing more resistant to VCR than REH co-cultured with niche cells"}, {"measurement": "viability of B-ALL cells in perivascular versus endosteal niche", "setting": "murine Ph+ B-ALL cells; 2-day treatment", "result": "a stronger dormancy and chemo-resistance of B-ALL cells in the endosteal niche"}, {"measurement": "B-ALL eradication (viability)", "setting": "murine Ph+ B-ALL cells; absence of niche cells, 48 hr", "result": "efficient B-ALL eradication"}, {"measurement": "B-ALL drug-induced cell death (chemo-resistance)", "setting": "murine Ph+ B-ALL cells; 48 hr", "result": "chemo-resistance phenomenon was confirmed"}, {"measurement": "B-ALL drug-induced cell death (chemo-resistance)", "setting": "murine Ph+ B-ALL cells; 48 hr, listed as VCR", "result": "partial rescue of drug-induced cell death"}, {"measurement": "REH viability / chemo-resistance with hematopoietic cells", "setting": "REH B-ALL blasts", "result": "hematopoietic cells also promoted NF-κB activation in B-ALL cells and chemo-resistance to VCR treatment"}]}]}
